Measured values published in patent publication US9550811B2, “Peptide scaffold design” (BIONOR IMMUNO AS, priority 2010, dated 2017).
Where no end group is shown, it is not given here. [ ]: non-standard residue; d: D form. Cit = NC(=O)NCCC[C@H](N)C(=O)O; Nle = CCCC[C@H](N)C(=O)O

Columns and labels:
[1] = tested on: human PBMCs; format: cell-based
[2] = tested on: human PBMCs; experiment: Extracellular staining for biotinylated peptides (flow cytometry); format: cell-based
Method: 96-well U-bottom polystyrene plates (NUNC, cat no: 163320) were used for staining of human PBMCs. Briefly, 8 ul of N- or C-terminally biotinylated peptides according to table 1 or table 2 (i.e. 5 mM, 2.5 mM & 1.25 mM tested for each peptide; all peptides manufactured by Schafer) were incubated at 37° C. for 2 h with 40 ul of PBMC (12.5×10^6 cells/ml) from blood donors. Cells were then washed 3× with 150 ul of Cellwash (BD, cat no: 349524), then stained with Streptavidin-APC (BD, cat no: 554067) & Anti-hCD11c (eBioscience, cat no: 12-0116) according to manufacturer at 4° C. for 30 min aiming to visualize biotinylated peptides & dendritic cells, respectively. Cells were then washed 3× with 150 ul of Cellwash (BD, cat no: 349524), followed by resuspension in staining buffer (BD, cat no: 554656) before flow cytometry. Dendritic cells were gated as CD11c+ events outside lymphocyte region (i.e. higher FSC & SSC signals than lymphocytes). 200 000 total cells were acquired on a FACSCanto II flow cytometer with HTS loader, and histograms for both total cells & dendritic cells with respect to peptide-fluorescence (i.e. GeoMean) were prepared.

[3] = tested on: HLA-A1; experiment: REVEAL binding assay; settings: score as percentage of the signal generated by the positive control peptide
Method: Binding properties to HLA for the ninemers listed in table 6 were tested for the following HLA-classes:
(§2) HLA-A1, HLA-A2, HLA-A3, HLA-A11, HLA-A24, HLA-A29, HLA-B7, HLA-B8, HLA-B14, HLA-B15, HLA-B27, HLA-B35, HLA-B40.
(§3) The REVEAL™ binding assay determined the ability of each candidate peptide to bind to one or more MHC class I alleles and stabilizing the MHC-peptide complex. […] Detection is based on the presence or absence of the native conformation of the MHC-peptide complex. Each peptide is given a score relative to the positive control peptide, which is a known T cell epitope.

[4] = tested on: HLA-A24; experiment: REVEAL binding assay; settings: score as percentage of the signal generated by the positive control peptide
[5] = tested on: HLA-A29; experiment: REVEAL binding assay; settings: score as percentage of the signal generated by the positive control peptide
[6] = tested on: HLA-B8; experiment: REVEAL binding assay; settings: score as percentage of the signal generated by the positive control peptide
Excerpt: as §2, §3

[7] = tested on: HLA-B14; experiment: REVEAL binding assay; settings: score as percentage of the signal generated by the positive control peptide
Excerpt: as §2, §3

[8] = tested on: HLA-B15; experiment: REVEAL binding assay; settings: score as percentage of the signal generated by the positive control peptide
[9] = biological target: HLA-A11 (Homo sapiens, UniProt P04439, A114D/F33Y/S129P); experiment: REVEAL binding assay; settings: score as percentage of the signal generated by the positive control peptide
How it was run: (§1)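 Synthetic nonamer peptides were tested for their ability to bind and stabilize MHC class I–peptide complexes, detected by the native conformation of the complex. Each peptide is scored relative to a positive-control known T-cell epitope.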

[10] = biological target: HLA-A2 (Homo sapiens, UniProt P04439, D140Y/D185E/D98H/E176V/E277Q/G131W/G231S/I119V/I121R/I166T/I218V/N151K/N90K/P208A/P217A/Q86G/Q94H/R138H/R169H); experiment: REVEAL binding assay; settings: score as percentage of the signal generated by the positive control peptide
How it was run: as §1

[11] = biological target: HLA-A3 (Homo sapiens, UniProt P04439); experiment: REVEAL binding assay; settings: score as percentage of the signal generated by the positive control peptide
Chain of HLA-A3 (P04439 25-299): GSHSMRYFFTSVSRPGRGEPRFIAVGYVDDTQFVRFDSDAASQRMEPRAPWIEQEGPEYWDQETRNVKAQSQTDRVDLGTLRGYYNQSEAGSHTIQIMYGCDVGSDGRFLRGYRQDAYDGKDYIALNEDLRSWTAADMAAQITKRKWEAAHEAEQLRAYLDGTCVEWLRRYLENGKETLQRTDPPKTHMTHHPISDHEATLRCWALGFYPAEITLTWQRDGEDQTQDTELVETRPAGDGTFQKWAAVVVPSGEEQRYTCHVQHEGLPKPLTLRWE
Chain of HLA-A3 (P61769 21-119, further chain): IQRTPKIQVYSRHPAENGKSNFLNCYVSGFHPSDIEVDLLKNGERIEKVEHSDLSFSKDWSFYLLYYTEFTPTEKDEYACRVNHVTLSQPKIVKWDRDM
How it was run: as §1

[12] = biological target: HLA-B27 (Homo sapiens, UniProt P01889, D138H/D201E/E176V/E204Q/G107R/H137Y/K202T/N104T/N87E/Q56L/Q94K/R106L/R155S/R180L/S101D/S121N/S48T/Y140D/Y33H/Y91C); experiment: REVEAL binding assay; settings: score as percentage of the signal generated by the positive control peptide
How it was run: as §1

[13] = biological target: HLA-B7 (Homo sapiens, UniProt P01889); experiment: REVEAL binding assay; settings: score as percentage of the signal generated by the positive control peptide
Chain of HLA-B7 (P61769 21-119): as the sequence (P61769 21-119, further chain) above
Chain of HLA-B7 (P01889 25-299): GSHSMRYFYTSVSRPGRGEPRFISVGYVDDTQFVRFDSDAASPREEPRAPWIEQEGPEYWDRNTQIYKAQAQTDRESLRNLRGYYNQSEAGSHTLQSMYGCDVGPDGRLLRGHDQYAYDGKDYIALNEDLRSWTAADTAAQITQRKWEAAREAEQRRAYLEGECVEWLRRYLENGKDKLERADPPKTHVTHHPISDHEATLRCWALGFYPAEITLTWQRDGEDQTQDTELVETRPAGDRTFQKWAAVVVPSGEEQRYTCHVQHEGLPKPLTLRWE
How it was run: as §1

[14] = tested on: HLA-B35; experiment: REVEAL binding assay; settings: score as percentage of the signal generated by the positive control peptide
Excerpt: as §2, §3

[15] = tested on: HLA-B40; experiment: REVEAL binding assay; settings: score as percentage of the signal generated by the positive control peptide
How it was run: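 Peptide–MHC class I complex stability assay on nonamers. Output: quantitative % relative to high-affinity control epitope, with putative pass/fail designation.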

Substance | Intracellular staining, median [1] | Extracellular staining, median [2] | REVEAL binding score, HLA-type A1 [3] | REVEAL binding score, HLA-type A24 [4] | REVEAL binding score, HLA-type A29 [5] | REVEAL binding score, HLA-type B8 [6] | REVEAL binding score, HLA-type B14 [7] | REVEAL binding score, HLA-type B15 [8] | REVEAL binding score, HLA-type A11 [9] | REVEAL binding score, HLA-type A2 [10] | REVEAL binding score, HLA-type A3 [11] | REVEAL binding score, HLA-type B27 [12] | REVEAL binding score, HLA-type B7 [13] | REVEAL binding score, HLA-type B35 [14] | REVEAL binding score, HLA-type B40 [15]
EEGYIPLVGAPLGEEVARALAHGVRV [compound 10, HCV (Not scaffold)] | 1.16 | 1.95 |  |  |  |  |  |  |  |  |  |  |  |  | 
GGGYIPLVGAPLGGGVARALAHGVRV [compound 11, HCV (Not scaffold)] | 2.01 | 2.62 |  |  |  |  |  |  |  |  |  |  |  |  | 
GYIPLVGAPLGGVARALAHGVRV [compound 5] | 1.84 | 2.08 |  |  |  |  |  |  |  |  |  |  |  |  | 
RGYIPLVGAPLGRRRVARALAHGVRVR [compound 6] | 5.35 | 2.20 |  |  |  |  |  |  |  |  |  |  |  |  | 
RGYLPAVGAPIGRRRVIRVIAHGLRLR [compound 7] | 11.59 | 29.42 |  |  |  |  |  |  |  |  |  |  |  |  | 
RRGGGQIVGGVYLLPRRGPRLGVRATR [compound 14] | 4.81 | 17.00 |  |  |  |  |  |  |  |  |  |  |  |  | 
RRGPVVHLTLRRRGQAGDDFS [compound 2, Neg control in scaffold, reference compound] | 4.12 | 1.77 |  |  |  |  |  |  |  |  |  |  |  |  | 
RRGYIPLVGAPLGRRRVARALAHGVRV [compound 9] | 3.25 | 2.06 |  |  |  |  |  |  |  |  |  |  |  |  | 
RRGYIPLVGAPLGRRVARALAHGVRV [compound 8] | 6.92 | 3.06 |  |  |  |  |  |  |  |  |  |  |  |  | 
RRIRNLGRVIETLTLZGYIPLIGARRIRNLGRVIETLTLZGYIPLIGAR [compound 20] | 13.25 | 126.5 |  |  |  |  |  |  |  |  |  |  |  |  | 
RRSRNLGKVIDTLTCRRLMGYIPLVGA [compound 13] | 21.43 | 16.80 |  |  |  |  |  |  |  |  |  |  |  |  | 
VGGVYLLPR |  |  | 17.88% | 0.34% | 14.20% | 11.57% | 0.44% | 13.22% | 4.16% | 8.73% | 3.41% | 0.79% | 1.15% | 4.02% | 55.61%
VIDTLTCGF |  |  | 25.85% | 0.95% | 13.90% | 10.00% | 0.11% | 9.49% | 6.00% | 5.14% | 2.93% | 1.11% | 0.45% | 3.26% | 27.24%
VIETLTSGF |  |  | 14.61% | 0.82% | 13.07% | 12.96% | 0.35% | 10.37% | 3.66% | 4.84% | 2.55% | 1.38% | 0.71% | 2.39% | 24.04%
VIRVIAHGL |  |  | 18.66% | 0.28% | 27.12% | 32.81% | 0.55% | 9.64% | 4.54% | 8.60% | 4.29% | 1.16% | 29.93% | 2.51% | 52.64%
VTGNIPGST |  |  | 16.18% | 1.60% | 15.05% | 13.12% | 0.75% | 5.15% | 4.85% | 8.44% | 2.52% | 1.58% | 2.24% | 4.00% | 130.97%
YATGNLPGC |  |  | 8.10% | 1.20% | 18.82% | 9.51% | 0.41% | 5.09% | 2.16% | 22.46% | 3.67% | 2.44% | 0.76% | 4.52% | 77.49%
YIPLVGAPL |  |  | 21.80% | 4.51% | 31.09% | 33.10% | 0.13% | 54.57% | 3.54% | 35.00% | 5.29% | 0.69% | 41.87% | 99.81% | 30.22%
YLPAVGAPI |  |  | 15.76% | 4.65% | 28.40% | 17.92% | 0.12% | 49.63% | 3.07% | 75.80% | 2.58% | 0.51% | 7.70% | 2.03% | 64.34%
YVTGNIPGS |  |  | 13.33% | 2.71% | 10.29% | 12.40% | 0.76% | 6.16% | 5.18% | 6.88% | 5.34% | 1.98% | 2.70% | 4.42% | 88.29%
[Cit]IGVRAT[Cit]R |  |  | 19.68% | 0.50% | 16.67% | 12.09% | 0.17% | 14.45% | 8.27% | 8.17% | 25.16% | 0.86% | 14.59% | 8.51% | 18.45%
[Nle]GYIPLIGA |  |  | 17.87% | 1.33% | 27.85% | 21.35% | 0.29% | 11.07% | 7.27% | 10.43% | 3.13% | 1.42% | 1.78% | 5.89% | 60.84%
